Assays:
Assay in all cases: relative viability (nuclei count vs DMSO), 5 days (fraction); higher = more cells survive
[1] = compound: CCn1c(-c2nonc2N)nc2c(C#CC(C)(C)O)ncc(OC[C@H]3CCCNC3)c21 + Cc1nc(NC(=O)N2CCC[C@H]2C(N)=O)sc1-c1ccnc(C(C)(C)C(F)(F)F)c1 [Alpelisib] (partner 2 µM)
Outline: (§1)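 Lung cancer cell lines in 1536-well plates got either a single drug or a fixed anchor-drug dose together with five library-drug doses (not always all listed) in √10 steps, by pin tool, on the day after seeding. Nuclei were counted after 5 days, and relative viability is the treated-to-vehicle ratio of nuclei counts. Values are medians of duplicate plates.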

[2] = compound: CCn1c(-c2nonc2N)nc2c(C#CC(C)(C)O)ncc(OC[C@H]3CCCNC3)c21 + Cc1cc(Nc2cc(N3CCN(C)CC3)nc(Sc3ccc(NC(=O)C4CC4)cc3)n2)n[nH]1 [Tozasertib] (partner 0.1 µM)
Outline: as §1

[3] = compound: CCn1c(-c2nonc2N)nc2c(C#CC(C)(C)O)ncc(OC[C@H]3CCCNC3)c21 + O=C(c1cc(Cc2n[nH]c(=O)c3ccccc23)ccc1F)N1CCN(C(=O)C2CC2)CC1 [Olaparib] (partner 8 µM)
Outline: as §1

BAM7 + Lapatinib = compound: CCOC1=CC=CC=C1N=NC2=C(NN(C2=O)C3=NC(=CS3)C4=CC=CC=C4)C [BAM7] + CS(=O)(=O)CCNCc1ccc(-c2ccc3ncnc(Nc4ccc(OCc5cccc(F)c5)c(Cl)c4)c3c2)o1 [Lapatinib] (partner 2 µM)
Outline: as §1

Cell Line | relative viability ([1]; first compound 0.01 µM) | relative viability ([1]; first compound 0.03162 µM) | relative viability ([1]; first compound 0.1 µM) | relative viability ([1]; first compound 0.3162 µM) | relative viability ([1]; first compound 1 µM) | relative viability ([2]; first compound 0.01 µM) | relative viability ([2]; first compound 0.03162 µM) | relative viability ([2]; first compound 0.1 µM) | relative viability ([2]; first compound 0.3162 µM) | relative viability ([2]; first compound 1 µM) | relative viability ([3]; first compound 0.01 µM) | relative viability ([3]; first compound 0.1 µM) | relative viability ([3]; first compound 0.3162 µM) | relative viability ([3]; first compound 1 µM) | relative viability (BAM7 + Lapatinib; first compound 0.5 µM) | relative viability (BAM7 + Lapatinib; first compound 5 µM) | relative viability (BAM7 + Lapatinib; first compound 15.81 µM) | relative viability (BAM7 + Lapatinib; first compound 50 µM) | relative viability ([3]; first compound 0.03162 µM)
PC-3 [JPC-3] | 1.16 | 1.02 | 0.977 | 1.02 | 1.02 | 0.847 | 0.943 | 0.833 | 0.827 | 0.859 | 1.07 | 1.15 | 1.03 | 1.09 | 0.425 | 0.472 | 0.427 | 0.412 | –
PC-14 | 0.945 | 0.909 | 1 | 0.888 | 0.865 | 0.587 | 0.63 | 0.687 | 0.533 | 0.716 | 0.309 | 0.34 | 0.378 | 0.412 | 0.334 | 0.324 | 0.309 | 0.351 | 0.244
RERF-LC-KJ | 0.886 | 0.958 | 0.737 | 0.656 | 0.781 | 0.441 | 0.516 | 0.403 | 0.477 | 0.416 | 1 | 0.854 | 0.854 | 0.797 | 0.868 | 0.815 | 0.802 | 0.791 | 0.87
SK-LU-1 | 1.08 | 1.26 | 0.968 | 1 | 1.13 | 0.335 | 0.387 | 0.349 | 0.306 | 0.344 | 0.49 | 0.482 | 0.43 | 0.461 | 0.78 | 1.02 | 0.846 | 0.897 | 0.723
SK-MES-1 | 0.87 | 0.916 | 0.856 | 1.11 | 0.953 | 0.858 | 0.835 | 0.894 | 0.854 | 0.856 | 0.658 | 0.678 | 0.649 | 0.702 | 0.488 | 0.438 | 0.423 | 0.505 | 0.72
SW 1573 | 0.717 | 0.783 | 0.656 | 0.73 | 0.734 | 0.175 | 0.179 | 0.178 | 0.201 | 0.14 | 0.553 | 0.477 | 0.399 | 0.364 | 1.17 | 1.23 | 1.09 | 1.33 | 0.39
